Measurements published in patent publication US20250011368A1, “DLL3 TARGETING PEPTIDES AND CONSTRUCTS THEREOF” (MARIANA ONCOLOGY INC., priority 2023, published 2025).
Numbered stars: 1 amine (or outer) side, 2 acyl side, 3 side chain; on linkers, the order of the positions; unused ones are H or OH. Bridge positions count the residues as written; N and C are the ends. Square brackets hold non-standard residues; d marks the D form. Side chains are listed from the residue outwards. Peptide text beside a SMILES is read from it. * marks the point of attachment. DOTA = O=C(O)CN1CCN(CC(=O)O)CCN(CC(=O)*)CCN(CC(=O)O)CC1; Trp(7-Cl) = N[C@@H](Cc1c[nH]c2c(Cl)cccc12)C(=O)O; Trp(7-Me) = Cc1cccc2c(C[C@H](N)C(=O)O)c[nH]c12; γGlu = O=C(O)[C@H](CCC(=O)[*:2])N[*:1]; 2Nal = N[C@@H](Cc1ccc2ccccc2c1)C(=O)O; NMeA = CN[C@@H](C)C(=O)O; Aze = O=C(O)[C@@H]1CCN1; Sar = CNCC(=O)O

Target: T1, human DLL3 (Homo sapiens, UniProt Q9NYJ7)
T1 sequence (Q9NYJ7 27-618): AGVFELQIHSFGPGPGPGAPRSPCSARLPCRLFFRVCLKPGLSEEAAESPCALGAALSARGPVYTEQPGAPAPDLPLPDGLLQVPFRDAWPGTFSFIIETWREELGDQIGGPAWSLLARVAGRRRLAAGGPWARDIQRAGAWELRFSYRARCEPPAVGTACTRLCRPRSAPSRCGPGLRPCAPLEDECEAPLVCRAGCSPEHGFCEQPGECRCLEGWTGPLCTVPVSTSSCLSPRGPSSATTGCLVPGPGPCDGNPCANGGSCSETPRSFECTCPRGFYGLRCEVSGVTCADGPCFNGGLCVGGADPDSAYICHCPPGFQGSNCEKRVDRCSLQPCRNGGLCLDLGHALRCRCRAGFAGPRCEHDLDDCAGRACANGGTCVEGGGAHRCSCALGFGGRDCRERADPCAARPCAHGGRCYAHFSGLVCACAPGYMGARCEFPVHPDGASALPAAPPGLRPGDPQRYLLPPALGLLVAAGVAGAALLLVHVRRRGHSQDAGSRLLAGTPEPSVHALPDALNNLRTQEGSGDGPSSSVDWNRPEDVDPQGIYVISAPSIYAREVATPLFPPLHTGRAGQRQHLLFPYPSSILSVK
Assay: Affinity determination by Surface Plasmon Resonance (SPR)
Type: binding
Conditions: 25° C., biotinylated human DLL3 immobilized on streptavidin sensor chip, 1:1 binding model; read-out: SPR KD
Method in brief: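 Kinetic and affinity constants were derived by fitting sensorgrams to a 1:1 binding model. Graded compound concentrations flowed at 100 μL/minute in 20 mM phosphate running buffer with 2% DMSO over streptavidin-immobilized biotinylated human DLL3, reference-subtracted.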

In the case of CC[C@H](C)[C@H](NC(=O)[C@@H](NC(=O)[C@H](Cc1c[nH]c2c(C)cccc12)NC(C)=O)[C@@H](C)O)C(=O)N[C@H]1CSSC[C@@H](C(=O)N[C@@H](Cc2c[nH]c3ccccc23)C(=O)N2CCC[C@H]2C(=O)N[C@H](CCCCNC(=O)CN2CCN(CC(=O)O)CCN(CC(=O)O)CCN(CC(=O)O)CC2)C(N)=O)NC(=O)[C@H](CC(=O)O)NC(=O)[C@H](Cc2cnc[nH]2)NC(=O)[C@H](Cc2ccc3ccccc3c2)NC(=O)[C@H](CC(N)=O)NC(=O)[C@H](CC(N)=O)NC1=O [compound 206, Ac-(7-Me-W)-T-I-C(3)-N-N-(2Nal)-H-D-C(3)-W-P-[D-Lys(DOTA)]-NH2] (Ac-[Trp(7-Me)]TICNN[2Nal]HDCWP[dK](DOTA)-NH2; disulfide 4-10), the Kd is reported as < 1 nM.

CC[C@H](C)[C@H](NC(=O)[C@@H](NC(=O)[C@H](Cc1c[nH]c2c(C)cccc12)NC(C)=O)[C@@H](C)O)C(=O)N[C@H]1CSSC[C@@H](C(=O)N[C@@H](Cc2c[nH]c3ccccc23)C(=O)N2CCC[C@H]2C(=O)N[C@H](CCCCNC(=O)CC[C@H](NC(=O)CC[C@H](NC(=O)CC[C@H](NC(=O)CN2CCN(CC(=O)O)CCN(CC(=O)O)CCN(CC(=O)O)CC2)C(=O)O)C(=O)O)C(=O)O)C(N)=O)NC(=O)[C@H](CC(=O)O)NC(=O)[C@H](Cc2cnc[nH]2)NC(=O)[C@H](Cc2ccc3ccccc3c2)NC(=O)[C@H](CC(N)=O)NC(=O)[C@H](CC(N)=O)NC1=O [compound 207, Ac-(7-Me-W)-T-I-C(3)-N-N-(2Nal)-H-D-C(3)-W-P-[D-Lys(gE-gE-gE-DOTA)]-NH2] (Ac-[Trp(7-Me)]TICNN[2Nal]HDCWP[dK]([γGlu-γGlu-γGlu-DOTA])-NH2; disulfide 4-10) was tested, and the Kd was < 1 nM.

CC[C@H](C)[C@H](NC(=O)[C@@H](NC(=O)[C@H](Cc1c[nH]c2ccccc12)NC(C)=O)[C@@H](C)O)C(=O)N[C@H]1CSSC[C@@H](C(=O)N[C@@H](Cc2c[nH]c3ccccc23)C(=O)N2CCC[C@H]2C(=O)N[C@H](CCCCNC(=O)CN2CCN(CC(=O)O)CCN(CC(=O)O)CCN(CC(=O)O)CC2)C(N)=O)NC(=O)[C@H](CC(=O)O)NC(=O)[C@H](Cc2cnc[nH]2)NC(=O)[C@H](Cc2ccc3ccccc3c2)NC(=O)[C@H](CC(N)=O)NC(=O)[C@H](CO)NC1=O [compound 208, Ac-W-T-I-C(3)-(Ser)-N-(2Nal)-H-D-C(3)-W-P-[D-Lys(DOTA)]-NH2] (Ac-WTICSN[2Nal]HDCWP[dK](DOTA)-NH2; disulfide 4-10) was tested, and the Kd was < 1 nM.

For CC[C@H](C)[C@H](NC(=O)[C@@H](NC(=O)[C@H](Cc1c[nH]c2ccccc12)NC(C)=O)[C@@H](C)O)C(=O)N[C@H]1CSSC[C@@H](C(=O)N[C@@H](Cc2c[nH]c3ccccc23)C(=O)N2CCC[C@H]2C(=O)N[C@H](CCCCNC(=O)CN2CCN(CC(=O)O)CCN(CC(=O)O)CCN(CC(=O)O)CC2)C(N)=O)NC(=O)[C@H](CC(=O)O)NC(=O)[C@H](Cc2cnc[nH]2)NC(=O)[C@H](Cc2ccc3ccccc3c2)NC(=O)[C@H](CC(=O)O)NC(=O)[C@H](CC(N)=O)NC1=O [compound 209, Ac-W-T-I-C(3)-N-(Asp)-(2Nal)-H-D-C(3)-W-P-[D-Lys(DOTA)]-NH2] (Ac-WTICND[2Nal]HDCWP[dK](DOTA)-NH2; disulfide 4-10), the Kd was < 1 nM.

With CC[C@H](C)[C@H](NC(=O)[C@@H](NC(=O)[C@H](Cc1c[nH]c2ccccc12)NC(C)=O)[C@@H](C)O)C(=O)N[C@H]1CSSC[C@@H](C(=O)N[C@@H](Cc2c[nH]c3ccccc23)C(=O)N2CCC[C@H]2C(=O)N[C@H](CCCCNC(=O)CN2CCN(CC(=O)O)CCN(CC(=O)O)CCN(CC(=O)O)CC2)C(N)=O)NC(=O)[C@H](CC(=O)O)NC(=O)[C@H](Cc2cnc[nH]2)NC(=O)[C@H](Cc2ccc3ccccc3c2)NC(=O)[C@H](CCCCN)NC(=O)[C@H](CC(N)=O)NC1=O [compound 213, Ac-W-T-I-C(3)-N-(Lys)-(2Nal)-H-D-C(3)-W-P-[D-Lys(DOTA)]-NH2] (Ac-WTICNK[2Nal]HDCWP[dK](DOTA)-NH2; disulfide 4-10) the Kd was < 1 nM.

In the case of CC[C@H](C)[C@H](NC(=O)[C@@H](NC(=O)[C@H](Cc1c[nH]c2c(Cl)cccc12)NC(C)=O)[C@@H](C)O)C(=O)N[C@H]1CSSC[C@@H](C(=O)N[C@@H](Cc2c[nH]c3ccccc23)C(=O)N2CCC[C@H]2C(=O)N[C@H](CCCCNC(=O)CN2CCN(CC(=O)O)CCN(CC(=O)O)CCN(CC(=O)O)CC2)C(N)=O)NC(=O)[C@H](CC(=O)O)NC(=O)[C@H](Cc2cnc[nH]2)NC(=O)[C@H](Cc2c[nH]c3ccccc23)NC(=O)[C@H](CC(N)=O)NC(=O)[C@H](CC(N)=O)NC1=O [compound 226, Ac-(7-CI-W)-T-I-C(3)-N-N-W-H-D-C(3)-W-P-[D-Lys(DOTA)]-NH2] (Ac-[Trp(7-Cl)]TICNNWHDCWP[dK](DOTA)-NH2; disulfide 4-10), the Kd is reported as 1 to 10 nM.

Work on CC[C@H](C)[C@H](NC(=O)[C@@H](NC(=O)[C@H](Cc1c[nH]c2ccccc12)NC(C)=O)[C@@H](C)O)C(=O)N[C@H]1CSSC[C@@H](C(=O)N[C@@H](Cc2c[nH]c3ccccc23)C(=O)N(C)CC(=O)N[C@H](CCCCNC(=O)CN2CCN(CC(=O)O)CCN(CC(=O)O)CCN(CC(=O)O)CC2)C(N)=O)NC(=O)[C@H](CC(=O)O)NC(=O)[C@H](Cc2cnc[nH]2)NC(=O)[C@H](Cc2c[nH]c3ccccc23)NC(=O)[C@H](CC(N)=O)NC(=O)[C@H](CC(N)=O)NC1=O [compound 227, Ac-W-T-I-C(3)-N-N-W-H-D-C(3)-W-Sar-[D-Lys(DOTA)]-NH2] (Ac-WTICNNWHDCW[Sar][dK](DOTA)-NH2; disulfide 4-10) yielded a Kd of 1 to 10 nM.

Work on CC[C@H](C)[C@H](NC(=O)[C@@H](NC(=O)[C@H](Cc1c[nH]c2ccccc12)NC(C)=O)[C@@H](C)O)C(=O)N[C@H]1CSSC[C@@H](C(=O)N[C@@H](Cc2c[nH]c3ccccc23)C(=O)N2CC[C@H]2C(=O)N[C@H](CCCCNC(=O)CN2CCN(CC(=O)O)CCN(CC(=O)O)CCN(CC(=O)O)CC2)C(N)=O)NC(=O)[C@H](CC(=O)O)NC(=O)[C@H](Cc2cnc[nH]2)NC(=O)[C@H](Cc2c[nH]c3ccccc23)NC(=O)[C@H](CC(N)=O)NC(=O)[C@H](CC(N)=O)NC1=O [compound 228, Ac-W-T-I-C(3)-N-N-W-H-D-C(3)-W-Aze-[D-Lys(DOTA)]-NH2] (Ac-WTICNNWHDCW[Aze][dK](DOTA)-NH2; disulfide 4-10) yielded a Kd of 1 to 10 nM.

CC[C@H](C)[C@H](NC(=O)[C@@H](NC(=O)[C@H](Cc1c[nH]c2ccccc12)NC(C)=O)[C@@H](C)O)C(=O)N[C@H]1CSSC[C@@H](C(=O)N[C@@H](Cc2c[nH]c3ccccc23)C(=O)N(C)[C@@H](C)C(=O)N[C@@H](CCCCNC(=O)CN2CCN(CC(=O)O)CCN(CC(=O)O)CCN(CC(=O)O)CC2)C(N)=O)NC(=O)[C@H](CC(=O)O)NC(=O)[C@H](Cc2c[nH]cn2)NC(=O)[C@H](Cc2c[nH]c3ccccc23)NC(=O)[C@H](CC(N)=O)NC(=O)[C@H](CC(N)=O)NC1=O [compound 229, Ac-W-T-I-C(3)-N-N-W-H-D-C(3)-W-NmeA-[D-Lys(DOTA)]-NH2] (Ac-WTICNNWHDCW[NMeA]K(DOTA)-NH2; disulfide 4-10) gave a Kd of 10 to 100 nM.
